Data from patent US10159249B2 (BAYER CROPSCIENCE AKTIENGESELLSCHAFT, priority 2013, dated 2018).
Where two headings read alike, the source gives them in different places.

Tests used:
[1] = biological target: PfHPPD-Evo40 (SEQ ID No 27) (Pseudomonas sp., UniProt P80064, A172V/A339E/A53E/D148E/D45N/E105D/E287Q/E300V/E334P/F143Y/G286D/G335S/H150N/H254A/H63N/I158V/I187A/I249V/K92N/L18F/N24G/N280D/S245T/S257K/S301E/T205S/V65I); assay: biochemical; set-up: species or system Pseudomonas fluorescens
Digitaria horizontalis = assay: Field trial, weed efficacy, post applied; assay type: in vivo; details: (A) 50 g ai/ha; application at 2 tillers; assessment 14 days after application
wild type soybean Thorne = assay type: in vivo; details: scored after 21 days
PfHPPD (SEQ ID No 46) = biological target: T1, PfHPPD (SEQ ID No 46) (Pseudomonas sp., UniProt P80064); assay: HPPD activity in presence of inhibitor, HGD assay; assay type: biochemical, Pseudomonas fluorescens
T1 construct: made in house; host or cells: E. coli K-12 BL21, vector pSE420(RI)NX-PfHPPD
T1 sequence (P80064 other isoform, or with tags, fused parts or gaps with the stated changes): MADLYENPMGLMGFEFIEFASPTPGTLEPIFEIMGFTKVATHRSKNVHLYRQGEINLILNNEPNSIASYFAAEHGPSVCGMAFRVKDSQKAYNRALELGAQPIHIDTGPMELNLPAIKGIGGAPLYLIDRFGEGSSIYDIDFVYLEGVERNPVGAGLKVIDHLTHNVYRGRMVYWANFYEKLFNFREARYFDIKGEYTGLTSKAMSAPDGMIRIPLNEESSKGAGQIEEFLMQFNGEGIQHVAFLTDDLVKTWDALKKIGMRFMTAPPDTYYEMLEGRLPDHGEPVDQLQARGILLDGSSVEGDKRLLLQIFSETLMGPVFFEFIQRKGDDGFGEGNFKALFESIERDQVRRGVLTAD
Protocol: (§1) With the HGD assay HPPD activity was measured at room temperature by adding appropriate amounts of HPPD to a solution of 200 mM Tris-HCl pH 7.6, 10 mM ascorbate, 20 μM FeSO4, 650 units of catalase, 8 μg HGA dioxygenase (HGA: homogentisate) and 600 μM HPP in a total volume of 1 ml. Initial reaction rates were determined from the increase in absorbance at 318 nm due to the formation of maleylacetoacetate (ε318=11,900 M-1 cm-1).
(§2) In cases, the symbol “>” is used this means that the value was far higher than the one indicated but could not be precisely calculated within in the range of concentration of inhibitor tested.
(§3) In the 1st column of Table 1, the HPPD employed in the assay is named and in the 2nd column of Table 1, the corresponding SEQ ID No of present invention is disclosed.

Amaranthus retroflexus = details: (A) 50 g ai/ha; application at 6 leaf stage; assessment 14 days after application
[2] = tested on: Non-transformed maize plants; assay: Greenhouse trial, maize plants, leaf damage; assay type: in vivo; details: 25 g AI/ha
Protocol: Regenerated T0 events from tissue culture were transplanted into two inch square pots with synthetic soil (Fafard® Mix) and controlled-released fertilizer (Haifa Multicote™; polymer-coated controlled-release fertilizer, NPK Pro 18-6-12+Micronutrients) and cultivated in the greenhouse (GH) under supplementary high pressure sodium light for 12 days at a maximum of 30° C. during the day and a minimum of 22° C. at night. Fully recovered plants were transferred into five inch square pots filled with synthetic soil and control released fertilizer under the same environmental conditions. […] All herbicide treatments were conducted in a DeVries Tracker Sprayer system with standard application protocols, which are well known in the art. As a spray control T0 events have been sprayed with the adjunvant mixture lacking the herbicide.

[3] = tested on: Axmi309H-Evo41 (SEQ ID No 37); assay: HPPD activity in presence of inhibitor, HGD assay; assay type: biochemical, Pseudomonas agarici
Protocol: as §1, §2, §3

Axmi309H (SEQ ID No 35) = assay: HPPD activity in presence of inhibitor, HGD assay; assay type: biochemical, Pseudomonas agarici
Protocol: as §1, §2, §3

[4] = biological target: PfHPPD-Evo41 (SEQ ID No 29) (Pseudomonas sp., UniProt P80064, A172V/A339Q/A53E/D148E/D45N/E105D/E287Q/E300V/E334P/F143Y/G286D/G335W/H150N/H254A/H63N/I158V/I187A/I249V/K338A/K92N/L18F/N24G/N280D/S245T/S257K/S301E/T205S/V65I); assay: biochemical; set-up: species or system Pseudomonas fluorescens
Chain of PfHPPD-Evo41 (SEQ ID No 29) (P80064 1-354 with tags or gaps with the stated changes limits assumed): as the sequence (P80064 other isoform, or with tags, fused parts or gaps with the stated changes) above, with E335P, G336W, K339A, A340Q counted along it

[5] = tested on: transgenic soybean T1 plants expressing PfHPPD-G336W; assay type: in vivo; details: for number of events, herbicide tolerance class 0 (41%-100% damaged leaf area) / number of events, herbicide tolerance class 1 (16%-40% damaged leaf area) / number of events, herbicide tolerance class 2 (6%-15% damaged leaf area) / number of events, herbicide tolerance class 3 (0%-5% damaged leaf area): scored after 21 days
PfHPPD336W (SEQ ID No 4) = PfHPPD336W (SEQ ID No 4) (Pseudomonas sp., UniProt P80064, G335W); assay: biochemical; set-up: species or system Pseudomonas fluorescens
Chain of PfHPPD336W (SEQ ID No 4) (P80064 1-354 with tags or gaps with the stated changes): as the sequence (P80064 other isoform, or with tags, fused parts or gaps with the stated changes) above, with G336W counted along it

[6] = tested on: transgenic soybean T1 plants expressing PfHPPD-Evo40; assay type: in vivo; details: for number of events, herbicide tolerance class 0 (41%-100% damaged leaf area) / number of events, herbicide tolerance class 1 (16%-40% damaged leaf area) / number of events, herbicide tolerance class 2 (6%-15% damaged leaf area) / number of events, herbicide tolerance class 3 (0%-5% damaged leaf area): soybean PfHPPD-Evo40, scored after 21 days
[7] = soybean Thorne (wt), 6.25 g AI/ha
[8] = room temperature, 600 μM HPP, molar concentration

Chain of PfHPPD-Evo40 (SEQ ID No 27) (P80064 1-354 with tags or gaps with the stated changes limits assumed): as the sequence (P80064 other isoform, or with tags, fused parts or gaps with the stated changes) above, with E335P, G336S, A340E counted along it

CSc1c(C(F)(F)F)ccc(C(=O)Nc2nnnn2C)c1Cl
IC50 [1]: 251 nM | % inhibition at 0.2 μM ([1]; 0.2 μM inhibitor, HGD assay): 40% | Efficacy (%) Digitaria horizontalis (Digitaria horizontalis): 70% | number of events, herbicide tolerance class 0 (41%-100% damaged leaf area) (wild type soybean Thorne; [7]): 4 | number of events, herbicide tolerance class 1 (16%-40% damaged leaf area) (wild type soybean Thorne; [7]): 0 | number of events, herbicide tolerance class 2 (6%-15% damaged leaf area) (wild type soybean Thorne; [7]): 0 | number of events, herbicide tolerance class 3 (0%-5% damaged leaf area) (wild type soybean Thorne; [7]): 0 | number of events, herbicide tolerance class 0 (41%-100% damaged leaf area) (wild type soybean Thorne; soybean Thorne, 25 g AI/ha): 4 | number of events, herbicide tolerance class 1 (16%-40% damaged leaf area) (wild type soybean Thorne; soybean Thorne, 25 g AI/ha): 0 | number of events, herbicide tolerance class 2 (6%-15% damaged leaf area) (wild type soybean Thorne; soybean Thorne, 25 g AI/ha): 0 | number of events, herbicide tolerance class 3 (0%-5% damaged leaf area) (wild type soybean Thorne; soybean Thorne, 25 g AI/ha): 0 | inhibition at 0.2 µM (PfHPPD (SEQ ID No 46); 0.2 μM inhibitor): 76% | IC50 (PfHPPD (SEQ ID No 46); room temperature, 600 μM HPP, molar concentration, read-out: pI50 (converted)): 100 nM | Efficacy (%) Amaranthus retroflexus (Amaranthus retroflexus): 65% | leaf damage [2]: 100% | % inhibition at 0.2 μM ([3]; 0.2 μM inhibitor): 26% | pI50 [3, 8]: 6.5 | % inhibition at 0.2 μM (Axmi309H (SEQ ID No 35); 0.2 μM inhibitor): 78% | pI50 (Axmi309H (SEQ ID No 35); [8]): 7.1 | IC50 [4]: 200 nM | % inhibition at 0.2 μM ([4]; 0.2 μM inhibitor, HGD assay): 50% | number of events, herbicide tolerance class 0 (41%-100% damaged leaf area) ([5]; 6.25 g AI/ha): 0 | number of events, herbicide tolerance class 1 (16%-40% damaged leaf area) ([5]; 6.25 g AI/ha): 0 | number of events, herbicide tolerance class 2 (6%-15% damaged leaf area) ([5]; 6.25 g AI/ha): 0 | number of events, herbicide tolerance class 3 (0%-5% damaged leaf area) ([5]; 6.25 g AI/ha): 12 | number of events, herbicide tolerance class 0 (41%-100% damaged leaf area) ([5]; 25 g AI/ha): 0 | number of events, herbicide tolerance class 1 (16%-40% damaged leaf area) ([5]; 25 g AI/ha): 0 | number of events, herbicide tolerance class 2 (6%-15% damaged leaf area) ([5]; 25 g AI/ha): 0 | number of events, herbicide tolerance class 3 (0%-5% damaged leaf area) ([5]; 25 g AI/ha): 16 | number of events, herbicide tolerance class 0 (41%-100% damaged leaf area) ([5]; 50 g AI/ha): 0 | number of events, herbicide tolerance class 1 (16%-40% damaged leaf area) ([5]; 50 g AI/ha): 4 | number of events, herbicide tolerance class 2 (6%-15% damaged leaf area) ([5]; 50 g AI/ha): 0 | number of events, herbicide tolerance class 3 (0%-5% damaged leaf area) ([5]; 50 g AI/ha): 0 | number of events, herbicide tolerance class 0 (41%-100% damaged leaf area) ([5]; 75 g AI/ha): 0 | number of events, herbicide tolerance class 1 (16%-40% damaged leaf area) ([5]; 75 g AI/ha): 3 | number of events, herbicide tolerance class 2 (6%-15% damaged leaf area) ([5]; 75 g AI/ha): 1 | number of events, herbicide tolerance class 3 (0%-5% damaged leaf area) ([5]; 75 g AI/ha): 0 | herbicide tolerance ([5]; in vivo): high tolerance | IC50 (PfHPPD336W (SEQ ID No 4)): 200 nM | % inhibition at 0.2 μM (PfHPPD336W (SEQ ID No 4); 0.2 μM inhibitor, HGD assay): 76% | herbicide tolerance ([6]; most soybean T1 plants expressing PfHPPD-Evo40, 25 g AI/ha): high tolerance | number of events, herbicide tolerance class 0 (41%-100% damaged leaf area) ([6]; 6.25 g AI/ha): 0 | number of events, herbicide tolerance class 1 (16%-40% damaged leaf area) ([6]; 6.25 g AI/ha): 0 | number of events, herbicide tolerance class 2 (6%-15% damaged leaf area) ([6]; 6.25 g AI/ha): 0 | number of events, herbicide tolerance class 3 (0%-5% damaged leaf area) ([6]; 6.25 g AI/ha): 4 | number of events, herbicide tolerance class 0 (41%-100% damaged leaf area) ([6]; 25 g AI/ha): 2 | number of events, herbicide tolerance class 1 (16%-40% damaged leaf area) ([6]; 25 g AI/ha): 7 | number of events, herbicide tolerance class 2 (6%-15% damaged leaf area) ([6]; 25 g AI/ha): 1 | number of events, herbicide tolerance class 3 (0%-5% damaged leaf area) ([6]; 25 g AI/ha): 6 | number of events, herbicide tolerance class 0 (41%-100% damaged leaf area) ([6]; 50 g AI/ha): 0 | number of events, herbicide tolerance class 1 (16%-40% damaged leaf area) ([6]; 50 g AI/ha): 4 | number of events, herbicide tolerance class 2 (6%-15% damaged leaf area) ([6]; 50 g AI/ha): 0 | number of events, herbicide tolerance class 3 (0%-5% damaged leaf area) ([6]; 50 g AI/ha): 0 | number of events, herbicide tolerance class 0 (41%-100% damaged leaf area) ([6]; 75 g AI/ha): 0 | number of events, herbicide tolerance class 1 (16%-40% damaged leaf area) ([6]; 75 g AI/ha): 4 | number of events, herbicide tolerance class 2 (6%-15% damaged leaf area) ([6]; 75 g AI/ha): 0 | number of events, herbicide tolerance class 3 (0%-5% damaged leaf area) ([6]; 75 g AI/ha): 0
